Active and inactive are the calls of the source. The rule behind the calls is not given here.
Legend:
Mus musculus [1] = assay: Compound was evaluated for its analgesic activity by mouse acetic acid writhing test after subcutaneous administration at a dose 10 mg/kg; Ia= inactive; assay type: functional, organism-based; parameters: dose 10 mg/kg
Rattus norvegicus [2] = assay: Compound was evaluated for its analgesic activity by Rat-tail-flick test after subcutaneous administration at a dose 10 mg/kg; Ia= inactive; assay type: functional, organism-based; parameters: dose 10 mg/kg
Mus musculus [3] = assay: Analgesic activity in the mouse acetic acid writhing test following s.c. administration.; assay type: functional; conditions: sc
Rattus norvegicus [4] = assay: Compound was evaluated for its analgesic activity by Rat-tail-flick test after subcutaneous administration; assay type: functional; conditions: for ED50: sc
Mus musculus [5] = assay: Compound was evaluated for its analgesic activity by mouse acetic acid writhing test after subcutaneous administration at a dose 10 mg/kg; assay type: functional; conditions: sc

| SMILES | ED50 (Mus musculus [3]) [mg/kg] | ED50 (Rattus norvegicus [4]) [mg/kg] | other results |
| --- | --- | --- | --- |
| CCCCC(O)C1=CCC23CCN(C)C(Cc4ccc(OC)cc42)[C@@H]3C1 (stereo partly drawn) |  |  | ED50 (Mus musculus [1]): inactive |
| COc1ccc2c(c1)C13CC=C(C=O)C[C@@H]1C(C2)N(C)CC3 (stereo partly drawn) [listing 1 of 2 here] |  |  | ED50 (Rattus norvegicus [2]): inactive |
| CCCCNCC1=CC2Oc3c(OC)ccc4c3C23CCN(C)C(C4)C3C1 (stereo not drawn) |  |  | ED50 (Mus musculus [1]): inactive |
| COc1ccc2c3c1OC1C=C(C=O)CC4(O)C(C2)N(C)CCC314 (stereo not drawn) | 3.6 |  |  |
| CCCC[C@@H](O)C1=CCC23CCN(C)C(Cc4ccc(OC)cc42)[C@H]3C1 (stereo partly drawn) | 0.0062 | 1.8 |  |
| CCCCC(C)(O)C1=CCC23CCN(C)C(Cc4ccc(OC)cc42)C3C1 (stereo not drawn) |  |  | ED50 (Mus musculus [1]): inactive; ED50 (Rattus norvegicus [2]): inactive |
| CCCCC(C)(O)C1=CCC23CCN(C)C(Cc4ccc(O)cc42)C3C1 (stereo not drawn) |  |  | ED50 (Mus musculus [1]): inactive |
| COc1ccc2c3c1O[C@H]1C(=O)CC[C@@]4(O)[C@@H](C2)N(C)CC[C@]314.Cl [OXYCODONE HYDROCHLORIDE] | 0.3 |  |  |
| CCCCC(O)C1=CCC23CCN(CC4CC4)C(Cc4ccc(OC)cc42)[C@H]3C1 (stereo partly drawn) | 0.21 |  |  |
| CCCCC(C)(O)C1=CCC23CCN(C)C(Cc4ccc(OC)cc42)[C@H]3C1 (stereo partly drawn) | 0.0125 | 3.2 |  |
| COc1ccc2c(c1)C13CCN(C)C(C2)[C@H]1CCC(=O)C3 (stereo partly drawn) | 0.49 | 0.66 |  |
| CCCC[C@H](O)C1=CCC23CCN(C)C(Cc4ccc(OC)cc42)[C@H]3C1 (stereo partly drawn) | 0.0058 | 0.3 |  |
| CCCCC(=O)C1=CCC23CCN(C)C(Cc4ccc(OC)cc42)[C@H]3C1.Cl (stereo partly drawn) | 0.82 |  |  |
| COc1ccc2c3c1OC1C=C(C=O)CC4C(C2)N(C)CCC314 (stereo not drawn) | 1.45 |  | ED50 (Rattus norvegicus [2]): inactive |
| COc1ccc2c3c1OC1C=C([C@@H](O)CCCc4ccccc4)CC4C(C2)N(C)CCC314 (stereo partly drawn) | 1.6 |  |  |
| COc1ccc2c3c1OC1C(=O)/C(=C/N(C)C)CC4C(C2)N(C)CCC314 (stereo not drawn) |  |  | ED50 (Mus musculus [1]): inactive; ED50 (Rattus norvegicus [2]): inactive |

| SMILES | ED50 (Mus musculus [3]) [mg/kg] | ED50 (Rattus norvegicus [4]) [mg/kg] | other results |
| --- | --- | --- | --- |
| COc1ccc2c(c1)C13CC=C(C=O)C[C@@H]1C(C2)N(C)CC3.Cl (stereo partly drawn) |  |  | ED50 (Mus musculus [5]): 4.55 mg/kg |
| CN1CC[C@]23c4c5ccc(O)c4O[C@H]2C(=O)CC[C@H]3[C@H]1C5.Cl [HYDROMORPHONE HYDROCHLORIDE] | 0.08 |  |  |
| CCCCC(O)C1=CC2Oc3c(OC)ccc4c3C23CCN(C)C(C4)C3C1 (stereo not drawn) | 3.13 |  | ED50 (Rattus norvegicus [2]): inactive |
| CCCCC(O)C1=CC2Oc3c(OC)ccc4c3C23CCN(C)C(C4)C3(O)C1.Cl (stereo not drawn) | 9.8 |  |  |
| CCCCC(=O)C1=CC2Oc3c(OC)ccc4c3C23CCN(C)C(C4)C3C1.Cl (stereo not drawn) |  | > 10 | ED50 (Mus musculus [1]): inactive |
| COc1ccc2c3c1O[C@H]1C(=O)CC[C@H]4[C@@H](C2)N(C)CC[C@]314.O=C(O)C(O)C(O)C(=O)O | 1.06 |  |  |
| COc1ccc2c3c1OC1C=C([C@H](O)CCCc4ccccc4)CC4C(C2)N(C)CCC314 (stereo partly drawn) | 0.72 |  |  |
| COc1ccc2c(c1)C13CC=C(C=O)C[C@@H]1C(C2)N(C)CC3 (stereo partly drawn) [listing 2 of 2 here] | 0.28 |  |  |
| COc1ccc2c3c1OC1C=C(C(C)=O)CC4C(C2)N(C)CCC314 (stereo not drawn) |  |  | ED50 (Mus musculus [1]): inactive; ED50 (Rattus norvegicus [2]): inactive |
| COc1ccc2c3c1OC1C=C(C(C)O)CC4C(C2)N(C)CCC314 (stereo not drawn) |  |  | ED50 (Mus musculus [1]): inactive; ED50 (Rattus norvegicus [2]): inactive |
| CCCCC(=O)C1=CCC23CCN(C)C(Cc4ccc(O)cc42)[C@H]3C1 (stereo partly drawn) | 0.046 | 0.0135 |  |
| CCCCS/C=C1\CC2C3Cc4ccc(OC)c5c4C2(CCN3C)C(O5)C1=O (stereo not drawn) | > 10 | > 10 |  |
| COc1ccc2c(c1)C13CCN(CC4CC4)C(C2)[C@H]1CCC(=O)C3 (stereo partly drawn) | > 10 |  | AD50 (Rattus norvegicus [4]): 1.3 mg/kg |
| COc1ccc2c(c1)C13CCN(C)C(C2)C1CCC(=O)C3 (stereo not drawn) |  | > 20 |  |
| CN1CC[C@]23c4c5ccc(O)c4O[C@H]2[C@@H](O)C=C[C@H]3[C@H]1C5.CN1CC[C@]23c4c5ccc(O)c4O[C@H]2[C@@H](O)C=C[C@H]3[C@H]1C5.O=S(=O)(O)O | 0.79 | 7.32 |  |
| CC(=O)C1=CCC23CCN(C)C(Cc4ccc(O)cc42)C3C1 (stereo not drawn) | > 10 | > 10 |  |
